This note sets out measurements from patent US20250282770A1, “BIOLUMINESCENT PROBES TO TRACK STEM CELLS IN VIVO” (THE BOARD OF TRUSTEES OF THE UNIVERSITY OF ILLINOIS, priority 2024, published 2025).

One series concerns rat liver microsomes. In words: Stability of AlDeLuc to rat liver microsomes. Type of series: in vitro ADME. Particulars: 2 μM; RLM 0.25 to 5.0 ng/mL; NADPH; 37° C. On the procedure: Investigating the Stability of AlDeLuc to Rat Liver Microsomes. The stability of AlDeLuc (2 μM) in rat liver microsomes (RLM) was measured in a black 96-well plate and was monitored using the IVIS imaging system. To Eppendorf tubes containing potassium phosphate buffer (0.1 M, pH 7.4), RLM (0.25 ng/mL or 5 ng/mL), and AlDeLuc (2 μM) was added NADPH (50 μM in potassium phosphate buffer) and incubated at 37° C. for 15 minutes. In parallel, Eppendorf tubes with potassium phosphate buffer (0.1 M, pH 7.4), ALDH1A1 (0.4 μM), NAD^+ (1 mM), and AlDeLuc (2 μM, activated with acid) were warmed at 37° C. for 15 minutes. The solutions were transported to the laboratory housing the IVIS imaging system (˜10 minutes), transferred to a 96-well plate, and immediately administered ATP-MgSO4 (45 μL, prepared by mixing 17.78 mM ATP-Mg and 35.56 mM MgSO4 in a 1:1 ratio in PBS buffer) and luciferase (5 μL, 1 mg/mL in PBS containing 10% glycerol) to initiate bioluminescence production. Light was collected immediately after mixing, and the total luminescent counts were collected in each condition. The total volume of each well was 200 μL with 0.2% DMSO. All data reported as the mean±standard deviation (n=4).

In series [1] the test system is A549 human lung carcinoma cells. The experiment in a line: AlDeLuc activation in A549 cells, lysate bioluminescence. In kind it is cell-based. Here is the method:
Validation of ALDH-Mediated Activation of AlDeLuc in Human Lung Cancer Cells. A549 cells were cultured in T75 culture flasks. After two days, cells had become ˜90% confluent. An aliquot of HAMS FK12 media (1 mL) was removed from each flask and replaced with either disulfiram (DSF) (100 μM, 0.5% DMSO) or vehicle (0.5% DMSO). After incubation for one hour, the solutions were aspirated, the cells were washed with PBS, and resuspended in fresh HAMS FK12 media (9 mL). Each flask was then incubated with the AlDeLuc such that the final concentration of the probe is 100 µM and 1% DMSO. After 60 minutes this solution was aspirated, washed with fresh PBS, and detached from the culture flasks. The cells were then transferred to a 15 mL centrifuge tube and pelleted at 1000 rpm for 5 minutes at room temp. The cells were resuspended in PBS along with 10% protease inhibitor solution (1 protease inhibitor mini tablet per 10 mL of PBS, Pierce, Thermo Fisher Scientific) and sonicated on ice for 2.5 minutes (pulse 01, 01, 40%). […] ROIs were drawn around each well and the signal intensity was quantified using the Living Image Analysis software.
Determining Sensitivity of AlDeLuc by Cell Concentration Changes. […] ROIs were drawn around each well and the signal intensity was quantified using the Living Image Analysis software.

A further series has as its system 4T1-Luc tumors. The experiment in a line: Bioluminescence imaging of heterotopic breast cancer model with AlDeLuc. Type of series: in vivo, BALB/c mice. Particulars: 0.55 mg/kg retro-orbital. Here is the method:
Generation of 4T1-Luc Breast Cancer Model. Female or male BALB/c mice (˜6 weeks old) were inoculated with 4T1-Luc cells (50 μL of 1×10^6 cells in 1:1 v/v serum-free RPMI 1640 media and Matrigel) via subcutaneous injections into each flank. Tumor volumes were measured using the caliper method every three days. Body weight was measured daily over the course of the experiment. After two weeks, the tumor was in the 200 to 400 mm^3 range.
Bioluminescence Imaging of a Heterotopic Breast Cancer Model with AlDeLuc. BALB/c mice bearing 4T1-Luc tumors were anesthetized using isoflurane (1-3% for maintenance; up to 5% for induction) in oxygen from a precision vaporizer. After testing to ensure animals are fully under anesthesia, each mouse was administered a control solution of 1:19 v/v DMSO:PBS via retro-orbital injection. After 40 minutes, the mice were imaged on the IVIS imaging system. Luminescence was collected using an open filter set. ROIs were drawn around both the left and right tumors, and the intensity was calculated using the Living Image Analysis software.
The following day the mice were anesthetized, and administered AlDeLuc (0.55 mg/kg, 1:19 v/v DMSO:PBS). […] Luminescence was collected using an open filter set. ROIs were drawn around both the left and right tumors, and the intensity was calculated using the Living Image Analysis software.

In the case of `CCN(CC)c1ccc2nc(C3=N[C@@H](C(OC)OC)CS3)sc2c1` [AlDeLuc, (S)-2-(4-(dimethoxymethyl)-4,5-dihydrothiazol-2-yl)-N,N-diethylbenzo[d]thiazol-6-amine], in the series with rat liver microsomes, the “bioluminescence after incubation with rat liver microsomes” value is recorded as “negligible bioluminescence”. This molecule showed a bioluminescence intensity increase in series [1] (3.6×10^6 A549 cells, 100 μM, 60 min) of 56 fold. For the same molecule, in series [1] (~1.25×10^5 A549 cells, 20 μM, one hour), the “light emission relative to vehicle controls” value turned out to be 22.1 fold. Further, in the series on 4T1-Luc tumors (4T1-Luc tumors), the “time at which tumor bioluminescence signal plateaued” value came to 40 min. Further, the “signal at the 24-hour mark” value in the series on 4T1-Luc tumors (24 hours after administration) was “complete clearance”.
